Assay results as given in US20040259790A1, “Methods for identifying and administering agents that bias the immune response via dendritic cells” (priority 2003, published 2004).
“Also recorded” adds a separate entry of the source. Where two headings read alike, the source gives them in different places.

What was measured:
JNK1/2 = experiment: MAP-kinase signaling in DCs: JNK1/2 phosphorylation (western blot); type: cell-based, human
c-Fos = experiment: Flow cytometric evaluation of c-Fos expression in DCs; type: cell-based, human; conditions: for phosphorylated c-Fos expression in DCs: flow cytometry
[1] = test system: human monocyte-derived DCs; experiment: Cytokine production by DCs (ELISA); type: cell-based
[2] = test system: naïve, allogeneic CD4+ CD45RA+ CD45RO− T cells; experiment: DC-T cell cultures: T-cell proliferation and Th1/Th2 cytokines; type: cell-based, human; conditions: for IFNγ in DC-T cell culture: DCs stimulated 48 h, then 5 days with naive CD4+ T cells
[3] = test system: splenic CD11c+ CD11b+ and CD11c+ CD11b− DC subsets; experiment: Activation of splenic DC subsets in vivo
[4] = test system: OVA-specific CD8+ T cells; experiment: Antigen-specific CD8+ T cell responses in vivo (OT-1 adoptive transfer); set-up: species or system mice; conditions: for clonal expansion of OVA-specific CD8+ T cells: i.p. with OVA257-264 50 μg, E. coli LPS 25 μg or Pam-3-cys 50 μg, day 4
[5] = test system: human monocyte-derived DCs; experiment: DC phenotype/maturation by flow cytometry (CD80, CD86, CD83); type: cell-based; conditions: immature DCs cultured 48 h with stimulus
Method: Isolation and culture of human monocyte-derived DCs: CD14^+ monocytes were enriched from peripheral blood mononuclear cells (PBMCs), using an enrichment step, and cultured in six well plates (1×10^6 cells/well) for six days with recombinant Human GM-CSF at 100 ng/ml (PeproTech, NJ) and recombinant Human IL-4 at 20 ng/ml (PeproTech, NJ). At day six, the cultures consisted uniformly of CD1a^+CD14^−, HLA-DR^+ CD11c^+ cells, which were negative for CD83, the human DC maturation marker, and expressed intermediate levels of such costimulatory molecules as CD86 (Rissoan et al., Science 283:1183-1186, 1999). On day six, the immature DCs were pulsed with E. coli LPS ([…]), flagellin ([…]), Pam3cys ([…]), or SEA ([…]) for 48 hours.
DC phenotype: The phenotype of DCs was determined by flow cytometry using a Facscalibur (BD Pharmingen, CA). Briefly, gated CD1a^+CD14^−, CD11c^+ HLA-DR^+ DCs were analyzed for the expression of CD80, CD86, CD83 and CD40. All antibodies, including the PE-labeled isotype controls were purchased from BD Pharmingen (La Jolla, Calif.).
Isolation and culture of human monocyte-derived DCs: CD14^+ monocytes were enriched from peripheral blood mononuclear cells, and cultured for 6 days with recombinant human GM-CSF at 100 ng/ml (PeproTech, NJ) plus recombinant human IL-4, at 20 ng/ml (PeproTech). At day 6, the cultures consisted uniformly of CD1a^+ CD14^−, HLA-DR^+ CD11c^+ cells, which were negative for CD83. These immature DCs were pulsed with Ec.LPS (1 μg/ml), flagellin (0.5 μg/ml), Pam3cys (20 μg/ml), or SEA (100 μg/ml) for 48 h.
DC phenotype: This was determined by flow cytometry using a Facscalibur (BD Pharmingen, CA). Briefly, gated CD1a^+CD14^−, C11c+ HLA-DR^+DCs were analyzed for the expression of CD80, CD86, CD83 and CD40 (BD Pharmingen, La Jolla, Calif.).

ERK1/2 [6] = experiment: MAP-kinase signaling in DCs: ERK1/2 phosphorylation; type: cell-based, human; conditions: 0.25, 1 and 4 h stimulation
[7] = test system: OVA-specific CD4+ T cells; experiment: Antigen-specific CD4+ T cell responses in vivo (OT-2 adoptive transfer); set-up: species or system mice
p38 MAP kinase = experiment: MAP-kinase signaling in DCs: p38 phosphorylation; type: cell-based, human
ERK1/2 [8] = experiment: IL-12(p70) production by stimulated DCs with ERK1/2 inhibitor; type: cell-based, human; conditions: inhibitor 1 h before stimulus
[9] = very high doses, which induced high levels of CD83
[10] = mice injected with OVA257-264 + stimulus
[11] = mice injected with OVA323-339 + stimulus

For “S-[2,3-bis(palmitoyloxy)-(2-RS)-propyl]-N-palmitoyl-R-Cys-S-Ser-Lys4-OH [Pam3cys]”, the “JNK1 phosphorylation in DCs” value (JNK1/2; Example 2, FIG. 9c, western blot) was “very weak”, the “c-Fos expression in DCs at 4 hours” value (c-Fos; 4 h of stimulation) was “maintained, even at 4 hours; also recorded: maintained even at 4 hrs” and the “phosphorylated c-Fos expression in DCs” value (c-Fos) was “expressed at significant levels”. The “total c-Fos expression (mean fluorescence intensity, fraction of cells) in DCs” value (c-Fos; peak, 2 hrs of stimulation, versus E. coli LPS or flagellin) was “much greater”, the “IL-12 induced in DCs at 10 hrs” value ([1]; 10 hrs, no inhibitor) was “did not induce any IL-12” and the “IL-12 induced in DCs at 24 hrs” value ([1]; 24 hrs, no inhibitor) was 20 to 100 pg/mL. For the same molecule, the “IL-10 secreted by DCs” value ([1]; 48 h with stimulus, ELISA) was “induced”, the “TNF-α secreted by DCs” value ([1]; 48 h with stimulus, ELISA) was “much weaker levels” and the “IL-12(p70) secreted by DCs” value ([1]; 48 h with stimulus, doses giving equivalent IL-6, ELISA) was “little or no IL-12(p70)”. The “IL-12(p70) secreted by DCs at very high doses of stimulus” value [1, 9] was “did not induce IL-12(p70)”, the “IL-5 in DC-T cell culture” value ([2]; Example 1, FIG. 2B) was “high levels” and the “IL-13 in DC-T cell culture” value ([2]; Example 1, FIG. 2B) was 1458 pg/mL. The “IFNγ in DC-T cell culture” value ([2]; Example 1, FIG. 2B) was “high levels”, the “IL-5 in DC-T cell culture” value ([2]; Example 2, FIG. 8b) was 600 pg/mL and the “IL-13 in DC-T cell culture” value ([2]; Example 2, FIG. 8b) was 600 pg/mL. The “IFNγ in DC-T cell culture” value ([2]; Example 2, FIG. 8b) was “approximately 2000 pg/ml”, the “Th1 responses induced by DCs stimulated at very high doses” value [2, 9] was “did not induce Th1 responses” and the “induction of CD86 and I-Ab on splenic DC subsets” value ([3]; TLR-2 deficient (TLR2−/−) mice) was “severely impaired; also recorded: severely reduced”. For the same molecule, the “CD86 and MHC class II (I-Ab) expression on splenic DC subsets” value ([3]; wild type mice, E. coli LPS 25 μg, Pam-3-cys 50 μg, 6 hours) was “equivalent up-regulation of CD86 and MHC class II; also recorded: upregulated CD86 and I-Ab expression”, the “bias of the CD8+ Tc response in vivo” value ([4]; OT-1) was “shift the balance towards the Tc2 pathway” and the “ratio IFNγ: IL-4” value ([4]; OT-1, FIG. 13D) was 28. For the same molecule, the “ratio IFNγ: IL-5” value ([4]; OT-1, FIG. 13D) was 21, the “ratio IFNγ: IL-13” value ([4]; OT-1, FIG. 13D) was 4 and the “clonal expansion of OVA-specific CD8+ T cells” value [4] was “induced clonal expansion”. The “clonal expansion of OVA-specific CD8+ T cells” value ([4]; listed as Pam-cys) was “enhanced the clonal expansion”, the “IFNγ in restimulated spleen cell culture” value [4, 10] was “lower levels of IFNγ” and the “IL-4, IL-5 and IL-13 in restimulated spleen cell culture” value [4, 10] was “relatively higher levels of IL-4, IL-5 and IL-13”. The “in vitro proliferative capacity of OVA-specific CD8+ T cells” value ([4]; spleen cells restimulated with OVA257-264, versus OVA257-264 alone) was “greatly enhanced responses”, the “CD80 expression on DCs” value [5] was “also weaker” and the “CD86 expression on DCs” value [5] was “much lower levels of CD86”. The “DC maturation (maturation marker CD83)” value [5] was “weaker than that induced by E. coli LPS or flagellin; also recorded: weaker than that induced by Ec.LPS or flagellin”, the “ERK1/2 phosphorylation in DCs” value (ERK1/2 [6]) was “much higher magnitude and duration of phosphorylation (which was sustained even at 4 hours); also recorded: much higher magnitude and duration of phosphorylation, (which was sustained even at 4 h)” and the “bias of the CD4+ Th response in vivo” value ([7]; OT-2) was “preferential bias towards the Th2 pathway”. The “ratio IFNγ: IL-4” value ([7]; OT-2, FIG. 12D) was 40, the “ratio IFNγ: IL-5” value ([7]; OT-2, FIG. 12D) was 18 and the “ratio IFNγ: IL-13” value ([7]; OT-2, FIG. 12D) was 1.2. The “IL-4 and IL-5 in restimulated spleen cell culture” value ([7]; OT-2, relative to OVA323-339+E. coli LPS, p<0.01) was “relatively higher levels of IL-4 and IL-5”, the “clonal expansion of OVA-specific CD4+ Thy-1.2+ T cells in spleen” value ([7]; i.p. with OVA323-339 50 μg, E. coli LPS 25 μg or Pam-3-cys 50 μg, day 4) was “significantly enhanced the clonal expansion; also recorded: induced clonal expansion” and the “IFNγ in restimulated spleen cell culture” value [7, 11] was “much lower levels of IFNγ”. For the same molecule, the “IL-5 in restimulated spleen cell culture” value [7, 11] was roughly 70 pg/mL, the “IL-4 in restimulated spleen cell culture” value ([7]; mice injected with OVA323-339 + stimulus, ELISA sensitivity 8 pg/ml) was roughly 30 pg/mL and the “in vitro proliferative capacity of OVA-specific CD4+ T cells” value ([7]; spleen cells restimulated with OVA, versus OVA323-339 alone) was “greatly enhanced responses”. For the same molecule, the “phosphorylation of p38 MAP kinase in DCs” value (p38 MAP kinase; 0.25, 1 and 4 h stimulation, phosphorylated to total ratio, ELISA) was “rapid burst of p38 phosphorylation at 15 minutes, which rapidly declined to near baseline levels by 1 hour” and the “phosphorylation of p38 MAP kinase in DCs” value (p38 MAP kinase; 0.25, 1 and 4 h stimulation, phosphorylated to total ratio, ELISA, listed as Pam-3-cys) was “enhanced phosphorylation of p38 MAP kinase”.

With `N#CC(=C(/N)Sc1ccccc1N)/C(C#N)=C(\N)Sc1ccccc1N` [U0126] the “IL-12(p70) production induced by Pam3cys when ERK1/2 is blocked” value (ERK1/2 [8]) was “significantly enhances IL-12(p70) production” and the “IL-12(p70) production induced by SEA when ERK1/2 is blocked” value (ERK1/2 [8]) was “did not result in consistent increases in IL-12(p70)”.

With flagellin the “JNK1 phosphorylation in DCs” value (JNK1/2) was “high levels”, the “JNK 2 phosphorylation in DCs” value (JNK1/2) was “higher levels of JNK 2” and the “phosphorylation of JNK1 and 2 in DCs” value (JNK1/2) was “higher levels of JNK1 and 2”. For the same molecule, the “phosphorylated c-Fos expression in DCs” value (c-Fos) was “not expressed”, the “IL-10 secreted by DCs” value [1] was “induced” and the “IL-12(p70) secreted by DCs” value [1] was “approximately 1000 pg/ml”. The “TNF-α secreted by DCs” value [1] was “strongly induced”, the “type of Th response induced by stimulated DCs” value [2] was “typical Th1 profile” and the “phosphorylation of p38 MAP kinase in DCs” value (p38 MAP kinase) was “enhanced phosphorylation of p38 MAP kinase, which peaked at 15 minutes, and was sustained at levels well above baseline, even at 4 hours”. For the same molecule, the “ratio of p38:ERK phosphorylation in DCs” value (p38 MAP kinase) was “much higher ratios of p38:ERK1/2”.
